Test results: paper PMC11995216, “End-to-End Backbone Cyclization Enhances Passive Permeability of bRo5 Oligomeric Depsipeptides with Nonlinear Size Dependence” (ACS Medicinal Chemistry Letters, 2025)
Values joined by “and” are separate entries in the source; they are usually repeats but may differ in a detail not shown here. Equal values may be shown once. Read-outs that look alike come from different tables or passages of the source. Starred links: 1 amine or outer side, 2 acyl side, 3 side chain; linkers in the order of their positions; H or OH if unused. Non-standard residues stand in square brackets, D forms with d. Residues, ends and D or L forms follow the SMILES beside them. *: point of attachment. X2 = CCCCC[C@H](O*)C(=O)OCc1ccccc1; X1 = CCCCC[C@H](O[*:1])C(=O)[*:2]; Ahp(2) = CCCCC[C@H](N)C(=O)O; dNMeA = CN[C@H](C)C(=O)O; Boc = CC(C)(C)OC(=O)*

Tests used:
[1] = PAMPA, 500 uM
[2] = calculated using Supplement Equation 1, UV detection
PAMPA [3] = details: UV detection
PAMPA [4] = details: UV detection, initial concentration 500 uM
in vitro = details: PAMPA, Papp
[5] = initial concentration 500 uM, UV detection
[6] = UV detection
[7] = Papp (x 10^-6 cm/s) / experiment 1
[8] = Papp (x 10^-6 cm/s) / experiment 2
[9] = Papp (x 10^-6 cm/s) / experiment 3
[10] = Papp (x 10^-6 cm/s) / experiment 4
[11] = Papp (x 10^-6 cm/s) / experiment 5
[12] = Papp (x 10^-6 cm/s) / experiment 6
[13] = Papp (x 10^-6 cm/s) / experiment 7
[14] = Papp (x 10^-6 cm/s) / experiment 8
[15] = Papp (x 10^-6 cm/s) / experiment 9
[16] = Papp (x 10^-6 cm/s) / experiment 10
[17] = Acceptor Concentration (uM) / experiment 1
[18] = Acceptor Concentration (uM) / experiment 2
[19] = Acceptor Concentration (uM) / experiment 3
[20] = Acceptor Concentration (uM) / experiment 4
[21] = Acceptor Concentration (uM) / experiment 5
[22] = Acceptor Concentration (uM) / experiment 6
[23] = Acceptor Concentration (uM) / experiment 7
[24] = Acceptor Concentration (uM) / experiment 8
[25] = Acceptor Concentration (uM) / experiment 9
[26] = Acceptor Concentration (uM) / experiment 10
[27] = Well 1 / [donor], Well 1, standard curve
[28] = Well 2 / [donor], Well 2, standard curve
[29] = Well 3 / [donor], Well 3, standard curve
[30] = Well 4 / [donor], Well 4, standard curve
[31] = Well 5 / [donor], Well 5, standard curve

In the case of `CCCCC[C@H](OC(=O)[C@@H](C)N(C)C(=O)[C@H](CCCCC)OC(=O)[C@@H](C)N(C)C(=O)[C@H](CCCCC)OC(=O)[C@@H](C)N(C)C(=O)[C@H](CCCCC)OC(=O)[C@@H](C)N(C)C(=O)[C@H](CCCCC)OC(=O)[C@@H](C)N(C)C(=O)OC(C)(C)C)C(=O)OCc1ccccc1` [Compound L1.5], the Δ % diffusion [1] is reported as “↑4%”, the %T ([2]; Well 1 / %T, Well 1) is reported as 0.33% and 0.28% and the %T ([2]; Well 2 / %T, Well 2) is reported as 0.24% and 0.25%. For the same compound, the %T ([2]; Well 3 / %T, Well 3) was 0.27%, the %T ([2]; Well 4 / %T, Well 4) was 0.27% and 0.29% and the %T ([2]; Well 5 / %T, Well 5) was 0.24% and 0.29%. For the same compound, the Papp (PAMPA [3]; [7]) was 2.29 ×10⁻⁶ cm/s, the Papp (PAMPA [3]; [8]) was 1.55 ×10⁻⁶ cm/s and the Papp (PAMPA [3]; [9]) was 1.77 ×10⁻⁶ cm/s. It also gave a Papp (PAMPA [3]; [10]) of 1.78 ×10⁻⁶ cm/s, a Papp (PAMPA [3]; [11]) of 1.56 ×10⁻⁶ cm/s and a Papp (PAMPA [3]; [12]) of 1.9 ×10⁻⁶ cm/s. The Papp (PAMPA [3]; [13]) was 1.61 ×10⁻⁶ cm/s, the Papp (PAMPA [3]; [14]) was 1.79 ×10⁻⁶ cm/s and the Papp (PAMPA [3]; [15]) was 1.89 ×10⁻⁶ cm/s. For the same compound, the Papp (PAMPA [3]; [16]) was 1.94 ×10⁻⁶ cm/s, the Acceptor Concentration (PAMPA [4]; [17]) was 50.2 µM and the Acceptor Concentration (PAMPA [4]; [18]) was 38.4 µM. For the same compound, the Acceptor Concentration (PAMPA [4]; [19]) was 40.2 µM, the Acceptor Concentration (PAMPA [4]; [20]) was 40.8 µM and the Acceptor Concentration (PAMPA [4]; [21]) was 37.5 µM. The Acceptor Concentration (PAMPA [4]; [22]) was 47.1 µM, the Acceptor Concentration (PAMPA [4]; [23]) was 40.3 µM and the Acceptor Concentration (PAMPA [4]; [24]) was 41 µM. It also gave an Acceptor Concentration (PAMPA [4]; [25]) of 45.3 µM, an Acceptor Concentration (PAMPA [4]; [26]) of 48 µM and a Papp at 500 uM (in vitro) of 1.81 ± 0.22 ×10⁻⁶ cm/s. For the same compound, the donor concentration after incubation [5, 27] was 366 µM and 419 µM, the donor concentration after incubation [5, 28] was 425 µM and 429 µM and the donor concentration after incubation [5, 29] was 387 µM and 389 µM. For the same compound, the donor concentration after incubation [5, 30] was 390 µM and 406 µM, the donor concentration after incubation [5, 31] was 412 µM and 419 µM and the % recovery ([6]; Well 1 / %R, Well 1) was 83% and 93%. The % recovery ([6]; Well 2 / %R, Well 2) was 93% and 94%, the % recovery ([6]; Well 3 / %R, Well 3) was 85% and 86% and the % recovery ([6]; Well 4 / %R, Well 4) was 86% and 90%. The % recovery ([6]; Well 5 / %R, Well 5) was 90% and 93%.

In the case of `CCCCC[C@H](NC(=O)[C@@H](C)N(C)C(=O)OC(C)(C)C)C(=O)N(C)[C@H](C)C(=O)O[C@@H](CCCCC)C(=O)N(C)[C@H](C)C(=O)O[C@@H](CCCCC)C(=O)N(C)[C@H](C)C(=O)O[C@@H](CCCCC)C(=O)OCc1ccccc1` [Compound L2.1] (Boc-[dNMeA][Ahp(2)][dNMeA][X1][dNMeA][X1][dNMeA]-X2), the LogPapp [1] is reported as -5.40 ± 0.05, the Δ % diffusion [1] is reported as “↑19%” and the %T ([2]; Well 1 / %T, Well 1) is reported as 0.47% and 0.5%. For the same compound, the %T ([2]; Well 2 / %T, Well 2) was 0.47% and 0.52%, the %T ([2]; Well 3 / %T, Well 3) was 0.49% and the %T ([2]; Well 4 / %T, Well 4) was 0.48% and 0.5%. For the same compound, the %T ([2]; Well 5 / %T, Well 5) was 0.49% and 0.5%, the Papp (PAMPA [3]; Papp (x 10^-6 cm/s) / [row 1]) was 3.57 ×10⁻⁶ cm/s and the Papp (PAMPA [3]; Papp (x 10^-6 cm/s) / [row 2]) was 4.24 ×10⁻⁶ cm/s. It also gave a Papp (PAMPA [3]; Papp (x 10^-6 cm/s) / [row 3]) of 3.98 ×10⁻⁶ cm/s, a Papp (PAMPA [3]; Papp (x 10^-6 cm/s) / [row 4]) of 4.55 ×10⁻⁶ cm/s and a Papp (PAMPA [3]; Papp (x 10^-6 cm/s) / [row 5]) of 4.01 ×10⁻⁶ cm/s. The Papp (PAMPA [3]; Papp (x 10^-6 cm/s) / [row 6]) was 3.22 ×10⁻⁶ cm/s, the Papp (PAMPA [3]; Papp (x 10^-6 cm/s) / [row 7]) was 3.32 ×10⁻⁶ cm/s and the Papp (PAMPA [3]; Papp (x 10^-6 cm/s) / [row 8]) was 4.45 ×10⁻⁶ cm/s. For the same compound, the Papp (PAMPA [3]; Papp (x 10^-6 cm/s) / [row 9]) was 4.33 ×10⁻⁶ cm/s, the Papp (PAMPA [3]; Papp (x 10^-6 cm/s) / [row 10]) was 4.04 ×10⁻⁶ cm/s and the Acceptor Concentration (PAMPA [4]; Acceptor Concentration (uM) / [row 1]) was 83.2 µM. It also gave an Acceptor Concentration (PAMPA [4]; Acceptor Concentration (uM) / [row 2]) of 94.6 µM, an Acceptor Concentration (PAMPA [4]; Acceptor Concentration (uM) / [row 3]) of 90.8 µM and an Acceptor Concentration (PAMPA [4]; Acceptor Concentration (uM) / [row 4]) of 98.2 µM. The Acceptor Concentration (PAMPA [4]; Acceptor Concentration (uM) / [row 5]) was 93.2 µM, the Acceptor Concentration (PAMPA [4]; Acceptor Concentration (uM) / [row 6]) was 76.9 µM and the Acceptor Concentration (PAMPA [4]; Acceptor Concentration (uM) / [row 7]) was 74.6 µM. For the same compound, the Acceptor Concentration (PAMPA [4]; Acceptor Concentration (uM) / [row 8]) was 97.5 µM, the Acceptor Concentration (PAMPA [4]; Acceptor Concentration (uM) / [row 9]) was 85.3 µM and the Acceptor Concentration (PAMPA [4]; Acceptor Concentration (uM) / [row 10]) was 83.9 µM. For the same compound, the Papp at 500 uM (in vitro) was 3.97 ± 0.46 ×10⁻⁶ cm/s, the donor concentration after incubation ([5]; Well 1 / [donor], Well 1) was 402 µM and 418 µM and the donor concentration after incubation ([5]; Well 2 / [donor], Well 2) was 377 µM and 393 µM. The donor concentration after incubation ([5]; Well 3 / [donor], Well 3) was 388 µM and 368 µM, the donor concentration after incubation ([5]; Well 4 / [donor], Well 4) was 363 µM and 335 µM and the donor concentration after incubation ([5]; Well 5 / [donor], Well 5) was 395 µM and 356 µM. For the same compound, the % recovery ([6]; Well 1 / %R, Well 1) was 97% and 99%, the % recovery ([6]; Well 2 / %R, Well 2) was 94% and the % recovery ([6]; Well 3 / %R, Well 3) was 96%. The % recovery ([6]; Well 4 / %R, Well 4) was 92% and 84% and the % recovery ([6]; Well 5 / %R, Well 5) was 98% and 88%.

In the case of `CCCCC[C@H](OC(=O)[C@@H](C)N(C)C(=O)OC(C)(C)C)C(=O)OCc1ccccc1` [Compound L1.1], the “Acceptor Concentration, Ave” value [1] is reported as 95.2 µM, the Δ % diffusion [1] is reported as “↑22%” and the %T ([2]; Well 1 / %T, Well 1) is reported as 0.56% and 0.55%. The %T ([2]; Well 2 / %T, Well 2) was 0.51%, the %T ([2]; Well 3 / %T, Well 3) was 0.44% and 0.55% and the %T ([2]; Well 4 / %T, Well 4) was 0.52% and 0.62%. For the same compound, the %T ([2]; Well 5 / %T, Well 5) was 0.49% and 0.52%, the Papp (PAMPA [3]; [7]) was 4.67 ×10⁻⁶ cm/s and the Papp (PAMPA [3]; [8]) was 4.06 ×10⁻⁶ cm/s. For the same compound, the Papp (PAMPA [3]; [9]) was 3.27 ×10⁻⁶ cm/s, the Papp (PAMPA [3]; [10]) was 4.23 ×10⁻⁶ cm/s and the Papp (PAMPA [3]; [11]) was 3.87 ×10⁻⁶ cm/s. For the same compound, the Papp (PAMPA [3]; [12]) was 4.51 ×10⁻⁶ cm/s, the Papp (PAMPA [3]; [13]) was 4.1 ×10⁻⁶ cm/s and the Papp (PAMPA [3]; [14]) was 4.51 ×10⁻⁶ cm/s. For the same compound, the Papp (PAMPA [3]; [15]) was 5.45 ×10⁻⁶ cm/s, the Papp (PAMPA [3]; [16]) was 4.19 ×10⁻⁶ cm/s and the Acceptor Concentration (PAMPA [4]; [17]) was 97.9 µM. For the same compound, the Acceptor Concentration (PAMPA [4]; [18]) was 95.4 µM, the Acceptor Concentration (PAMPA [4]; [19]) was 79.7 µM and the Acceptor Concentration (PAMPA [4]; [20]) was 94.3 µM. For the same compound, the Acceptor Concentration (PAMPA [4]; [21]) was 84.7 µM, the Acceptor Concentration (PAMPA [4]; [22]) was 107 µM and the Acceptor Concentration (PAMPA [4]; [23]) was 95.8 µM. For the same compound, the Acceptor Concentration (PAMPA [4]; [24]) was 92.9 µM, the Acceptor Concentration (PAMPA [4]; [25]) was 107 µM and the Acceptor Concentration (PAMPA [4]; [26]) was 97.4 µM. For the same compound, the Papp at 500 uM (in vitro) was 4.3 ± 0.6 ×10⁻⁶ cm/s, the donor concentration after incubation [5, 27] was 339 µM and 383 µM and the donor concentration after incubation [5, 28] was 384 µM and 381 µM. The donor concentration after incubation [5, 29] was 406 µM and 335 µM, the donor concentration after incubation [5, 30] was 363 µM and 315 µM and the donor concentration after incubation [5, 31] was 360 µM and 379 µM. The % recovery ([6]; Well 1 / %R, Well 1) was 87% and 98%, the % recovery ([6]; Well 2 / %R, Well 2) was 96% and 95% and the % recovery ([6]; Well 3 / %R, Well 3) was 97% and 86%. The % recovery ([6]; Well 4 / %R, Well 4) was 91% and 84% and the % recovery ([6]; Well 5 / %R, Well 5) was 89% and 95%.
